Results on 10 compounds are retold here after patent US4510136A (priority 1983, dated 1985).

The test system of one experiment is Phytophthora infestans. The experiment in a line: whole plant or invertebrate. Format: in vivo. The settings on record: Phytophthora infestans, in Solanum lycopersicum, 168 h, read-out: % Control of Tomato Late Blight, 100 ppm spray, day before inoculation.
In the next experiment the test system is Erysiphe cichoracearum. The experiment in a line: Cucumber powdery mildew control on sprayed cucumber seedlings (Example 80). It counts as in vivo. The settings on record: Golovinomyces cichoracearum, 168 h, 100 ppm spray, day before inoculation.
For another experiment, the system named is Cercospora arachidicola. Description: Peanut early leafspot control on sprayed peanut seedlings (Example 84). Format: in vivo. To be noted: Mycosphaerella arachidis, 360 h, 100 ppm spray, day before inoculation; read-out: % Control Peanut Easly Leafspot.
The next experiment relates to Helminthosporium maydis. The experiment in a line: Southern corn leaf blight control on sprayed corn seedlings (Example 83). Format: in vivo. The settings on record: Bipolaris maydis, 192 h, 100 ppm spray, day before inoculation. Summed up:
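Corn seedlings were sprayed to run-off with 100 ppm suspensions (6% acetone, 250 ppm TREM 014) and spore-inoculated the following day. Disease and growth reduction were rated after 24 h saturated humidity at 20° plus 7 days in a growth room.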

The subject of experiment [1] is Puccinia recondita var. tritici. The experiment in a line: Wheat leaf rust control on sprayed wheat seedlings (Example 79). Format: in vivo. To be noted: Puccinia recondita, 168 h; 100 ppm spray, day before inoculation. In short, it runs like this:
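Disease was scored as leaf rust pustules 7 days after a 24 h, 20° saturated-humidity incubation of seedlings inoculated with P. recondita var. tritici spores. Inoculation followed by one day a run-off spray of 100 ppm compound in water containing 6% acetone and 250 ppm TREM 014.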

Experiment [2] has as its system Pythium aphanadermatum. The experiment in a line: Pythium control on cotton, seed coating (Example 91). Format: in vivo. The settings on record: 168 h, 2 gm/kg seed. The text has this: Several compounds of the previous examples were incorporated into a proprietary formulation and used to coat cotton seeds at a rate of 2 gm/kg seed. After being thoroughly coated, the seeds were allowed to air dry at room temperature. The cotton seeds were then planted into soil amended with the fungus Pythium aphanadermatum, sand, and corn meal at a rate sufficient to kill most untreated seeds. The seeds were held at room temperature for 1 week, after which time disease ratings were made.

Another experiment relates to Pyricularia oryzae. Description: whole plant or invertebrate. Format: in vivo. To be noted: Pyricularia oryzae, 168 h, read-out: % Control of Rice Blast, 100 ppm spray, day before inoculation.
A further experiment deals with Rhizoctonia solani. The experiment in a line: Rice sheath blight control on sprayed rice seedlings (Example 87). Format: in vivo. To be noted: Rhizoctonia solani, 168 h, 100 ppm spray, day before inoculation. Summed up:
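Disease ratings followed 7 days' growth-room incubation of seedlings given a bran/R. solani mycelium inoculum. Inoculation took place one day after spraying to run-off. The spray was a 100 ppm compound suspension in water containing 6% acetone and 250 ppm TREM 014.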

The next experiment has as its system Venturia inaequalis. The experiment in a line: Apple scab control on sprayed apple seedlings (Example 82). It counts as in vivo. To be noted: Venturia inaequalis, 100 ppm spray, day before inoculation.
For experiment [3], the system named is Pythium aphanadermatum. Description: Pythium control on corn, seed coating (Example 92). It counts as in vivo. To be noted: 504 h, 2 gm/kg seed. The method, then: Several compounds of the previous examples were incorporated into a proprietary formulation and used to coat corn seeds at a rate of 2 gm/kg seed. After being thoroughly coated, the seeds were allowed to air dry at room temperature. The seeds were then planted into soil amended with a mixture of the fungus Pythium aphanadermatum, sand, and corn meal at a rate sufficient to kill most untreated seeds. The seeds were held at 49° F. for 2 weeks and then at 70° F. for 1 additional week. After this time disease ratings were made.

The subject of the next experiment is Erysiphe graminis. Description: Barley powdery mildew control on sprayed barley seedlings (Example 81). Format: in vivo. To be noted: Blumeria graminis, 168 h; 100 ppm spray, day before inoculation. The method, then:
The compounds of the previous examples were again dissolved in acetone in an amount equal to 6% of the final volume and then suspended at a concentration of 100 ppm in purified water containing 250 ppm of the surfactant TREM 014 (polyhydric alcohol esters). These suspensions were sprayed to the point of run-off on barley seedlings. The following day, the plants were inoculated with a spore suspension of the fungus Erysiphe graminis, causal agent of barley powdery mildew, and incubated in growth room for 7 days. Disease ratings were then made. Treated plants from successful treatments had little or no powdery mildew in contrast to untreated plants which were covered with powdery mildew.

The next experiment concerns Monilinia fructicola. Description: Stone fruit brown rot control on dipped canned peach halves (Example 86). To be noted: 120 h, 100 ppm dip, percent growth inhibition of colonies after five days. The source says: Several compounds of the previous examples were again dissolved in acetone in an amount equal to 5% of the final volume and then suspended at a concentration of 100 ppm in purified water containing 700 ppm of the surfactant TREM 014 (polyhydric alcohol esters). Canned peach halves were dipped in this suspension for three minutes and then placed to air dry in sterile containers. Upon drying, the peach halves were inoculated with two pieces of Monilinia fructicola mycelium, causal agent of stone fruit brown rot, and incubated in the sterile containers for five days. At that time the radii of the colonies' growth were measured on each peach. […] Percent disease control (percent growth inhibition of colonies on treated peaches as compared to that of colonies on untreated peaches) is expressed in the table below.

Usually inhibition of growth stands for how much of the control response was suppressed.

In the case of `C[Si](Cn1cncn1)(c1ccc(-c2ccccc2)cc1)c1ccc(-c2ccccc2)cc1` [bis(1,1'-Biphenyl-4-yl)(methyl)(1H-1,2,4-triazol-1-ylmethyl)silane], the pest or weed control at 100 ppm in the experiment on Phytophthora infestans came to 0%; in the experiment on Erysiphe cichoracearum it was 100%; in the experiment with Cercospora arachidicola, 80%; in the experiment on Helminthosporium maydis it was 0%; in [1] it was 80%; in the experiment on Pyricularia oryzae, 100%. The pest or weed control at 100 ppm came out at 90% with Rhizoctonia solani and 0% in the experiment on Venturia inaequalis. The pest or weed control at 2 g/kg seed in the experiment on Pythium aphanadermatum [2] was found to be 0%.
For the compound `C[Si](Cn1cncn1)(c1ccccc1)c1ccc(-c2ccccc2)cc1` (stereo not drawn) [(1,1'-Biphenyl-4-yl)methyl(phenyl)(1H-1,2,4-triazol-1-ylmethyl)silane], the pest or weed control at 100 ppm is 0% in the experiment with Phytophthora infestans; 100% in the experiment with Erysiphe cichoracearum; 100% with Cercospora arachidicola; 90% in the experiment on Helminthosporium maydis; 100% in experiment [1]; 0% in the experiment with Pyricularia oryzae. For the same compound, the pest or weed control at 100 ppm with Rhizoctonia solani came to 0%; in the experiment with Venturia inaequalis it was 100%. The pest or weed control at 2 g/kg seed with Pythium aphanadermatum [2] and with Pythium aphanadermatum [3] was 0% throughout.
Turning to `C[Si](C)(Cn1cnnc1)c1ccc(-c2ccccc2)cc1` [(1,1'-Biphenyl-4-yl)dimethyl(4H-1,2,4-triazol-4-ylmethyl)silane], the pest or weed control at 100 ppm turned out to be 0% in the experiment with Phytophthora infestans; 90% in the experiment on Erysiphe cichoracearum; 0% with Cercospora arachidicola; 100% in the experiment on Helminthosporium maydis; 0% with Erysiphe graminis; 0% in experiment [1]. The pest or weed control at 100 ppm in the experiment with Pyricularia oryzae is 0%; with Rhizoctonia solani it was 0%; with Venturia inaequalis it was 80%. This compound gave an inhibition of growth at 100 µg/mL in the experiment with Monilinia fructicola of 96%.
In the case of `COc1ccc([Si](C)(C)Cn2cncn2)cc1` [Dimethyl(4-methoxyphenyl)(1H-1,2,4-triazol-1-ylmethyl)silane], the pest or weed control at 100 ppm was determined as 0% in the experiment on Phytophthora infestans; 100% in the experiment with Erysiphe cichoracearum; 0% in the experiment on Cercospora arachidicola; 90% in the experiment on Helminthosporium maydis; 100% with Erysiphe graminis; 0% in experiment [1]. The pest or weed control at 100 ppm in the experiment with Pyricularia oryzae was 0%; in the experiment with Rhizoctonia solani, 0%; in the experiment on Venturia inaequalis it was 100%. Besides, in the experiment on Pythium aphanadermatum [2], the pest or weed control at 2 g/kg seed was found to be 0%. Also, 100 µg/mL produced 97% inhibition of growth with Monilinia fructicola.
With `CCCC[Si](C)(Cn1cncn1)c1ccc(F)cc1` (stereo not drawn) [Butyl(4-fluorophenyl)methyl(1H-1,2,4-triazol-1-ylmethyl)silane], the pest or weed control at 100 ppm in the experiment with Phytophthora infestans was determined as 0%; with Erysiphe cichoracearum, 100%; in the experiment with Cercospora arachidicola, 0%; in the experiment with Helminthosporium maydis it was 0%; in experiment [1], 0%; with Pyricularia oryzae, 100%. Moreover, the pest or weed control at 100 ppm with Rhizoctonia solani turned out to be 80%; in the experiment on Venturia inaequalis it was 100%. In addition, the pest or weed control at 2 g/kg seed in the experiment with Pythium aphanadermatum [2] and in the experiment on Pythium aphanadermatum [3] was 0% each time. The compound also gave an inhibition of growth at 100 µg/mL in the experiment on Monilinia fructicola of 100%.
On to `C[Si](C)(Cn1cncn1)c1ccc(-c2ccccc2)cc1` [(1,1'-Biphenyl-4-yl)dimethyl(1H-1,2,4-triazol-1-ylmethyl)silane], for which the pest or weed control at 100 ppm in the experiment with Erysiphe cichoracearum came out at 100%; in the experiment with Cercospora arachidicola it was 100%; in the experiment on Helminthosporium maydis it was 90%; in experiment [1] it was 100%; in the experiment on Venturia inaequalis, 100%. In addition, the pest or weed control at 2 g/kg seed with Pythium aphanadermatum [2] was 12%; in the experiment with Pythium aphanadermatum [3], 30%. In the experiment on Monilinia fructicola, this compound showed an inhibition of growth at 100 µg/mL of 100%.
`c1ccc([Si](Cn2cncn2)(c2ccccc2)c2ccccc2)cc1` [(1H-1,2,4-Triazol-1-ylmethyl)triphenylsilane]: the pest or weed control at 100 ppm is 0% in the experiment with Phytophthora infestans; 100% in the experiment on Erysiphe cichoracearum; 0% in the experiment with Cercospora arachidicola; 0% in the experiment on Helminthosporium maydis; 100% in the experiment with Erysiphe graminis; 0% in experiment [1]. Further, the pest or weed control at 100 ppm in the experiment with Pyricularia oryzae, with Rhizoctonia solani and in the experiment with Venturia inaequalis was 0% in each case.
As for `C[Si](C)(Cn1cncn1)c1ccccc1` [Dimethyl(phenyl)(1H-1,2,4-triazol-1-ylmethyl)silane], the pest or weed control at 100 ppm was found to be 0% with Phytophthora infestans; 100% with Erysiphe cichoracearum; 0% in the experiment with Cercospora arachidicola; 0% in the experiment on Helminthosporium maydis; 90% in [1]; 0% with Pyricularia oryzae. The compound further came in with a pest or weed control at 100 ppm with Venturia inaequalis of 0%. Besides, the pest or weed control at 2 g/kg seed in the experiment on Pythium aphanadermatum [2] turned out to be 0%. For the same compound, the inhibition of growth at 100 µg/mL in the experiment on Monilinia fructicola worked out at 89%.
As to `C[Si](C)(Cn1cncn1)c1cccc2ccccc12` [Dimethyl(1-naphthalenyl)(1H-1,2,4-triazol-1-ylmethyl)silane], the pest or weed control at 100 ppm in the experiment on Phytophthora infestans came to 0%; in the experiment with Erysiphe cichoracearum, 100%; in the experiment with Cercospora arachidicola, 90%; in the experiment on Helminthosporium maydis, 0%; with Erysiphe graminis, 0%; in [1] it was 0%. Besides, the pest or weed control at 100 ppm was 70% in the experiment on Pyricularia oryzae, 0% in the experiment with Rhizoctonia solani and 50% in the experiment with Venturia inaequalis. In addition, in the experiment on Pythium aphanadermatum [3], the pest or weed control at 2 g/kg seed came to 30%.
In the case of `CC[Si](C)(C)Cn1cncn1` [Ethyldimethyl(1H-1,2,4-triazol-1-ylmethyl)silane], the pest or weed control at 100 ppm in the experiment on Phytophthora infestans stood at 0%; in the experiment on Erysiphe cichoracearum, 100%; with Cercospora arachidicola it was 0%; in the experiment on Helminthosporium maydis, 0%; in [1], 0%; with Pyricularia oryzae it was 0%. The pest or weed control at 100 ppm in the experiment with Venturia inaequalis came to 0%. The pest or weed control at 2 g/kg seed in the experiment on Pythium aphanadermatum [2] was found to be 48%; in the experiment on Pythium aphanadermatum [3], 13%.
